Data reported in US20260200979A1, “PEPTIDE FOR CARTILAGE REGENERATION, AND USES THEREOF” (CAREGEN CO., LTD., priority 2022, published 2026).
Ends that are not written are not given here.

Tested on: human-derived chondrocytes (C28/I2, human chondrocyte cell line)
Test: CCK-8 cytotoxicity assay
Format: cell-based
Conditions: C28/I2 cells, different concentrations, 3 days, 450 nm
Description: The cytotoxicity of Peptide-1 or Peptide-2 upon addition to human-derived chondrocytes (C28/I2, human chondrocyte cell line) was analyzed using a CCK-8 assay.
Specifically, human-derived chondrocytes were seeded in a 96-well plate at a density of 3×10^3 cells/well and cultured in DMEM medium (cat. 11995-065, Gibco) for 24 hours. […] Meanwhile, as a negative control group, an experimental group to which the peptide was not added was used.

## KFLIK [Peptide-2, KFLIK]
  cytotoxicity (CCK-8 activity): did not exhibit toxicity

## PYYRI [Peptide-1, PYYRI]
  cytotoxicity (CCK-8 activity): did not exhibit toxicity
